According to patent publication US20060293288A1, “Use of resolvins to treat gastrointestinal diseases” (priority 2005, published 2006):
“Also recorded” adds a separate entry of the source.

Columns and labels:
[1] = test system: leukocyte infiltration in zymosan-induced peritonitis; assay: zymosan-induced peritonitis, leukocyte (PMN) infiltration; type: in vivo, mice; details: for relative potency in the peritonitis model: compared with RvE1 or indomethacin; for effect on PMN infiltration/migration into the peritoneum (in words): peritonitis model, mice
Experimental: FIG. 1. (A) Inflammatory exudates from mice treated with EPA and aspirin generate RvE1 in vivo. (B) Inhibition of leukocyte infiltration in zymosan-induced peritonitis treated with EPA and aspirin. Mice were pre-treated for 30 min by aspirin (0.5 mg) intraperitoneally followed by EPA (0.3 mg) and zymosan. Peritoneal lavages were collected at 2 h and cells were enumerated. (n=4, *p<0.05 compared with vehicle control, **p<0.05 compared with aspirin alone). (C) Inhibition of leukocyte infiltration in zymosan-induced peritonitis. RvE1 (100 ng) was injected intravenously into tail veins followed by zymosan A into the peritoneum. Mice were sacrificed, and peritoneal lavages were collected (2 h) and cells enumerated (n=3, *p<0.01 compared with vehicle control).
Inflammatory exudates were initiated with intraperitoneal injection of 1 ml zymosan A (1 mg/ml) with 6-8-wk-old male FvB mice. Mice were pre-treated by aspirin (0.5 mg) i.p. followed by EPA (0.3 mg) and zymosan. Peritoneal lavages were collected at 2 h and cells were enumerated. Cell-free exudates were extracted by C18 solid phase extraction with deuterium-LTB4 (Cascade, UK) as an internal standard for LC-UV-MS/MS analysis using a Finnigan LCQ liquid chromatography ion trap tandem mass spectrometer equipped with a LUNA C18-2 (100×2 mm×5 μm) column and UV diode array detector using mobile phase (methanol:water:acetate at 65:35:0.01) from 0 to 8 min, ramped to methanol 8 to 30 min, with a 0.2 ml/min flow rate.

gastric damage = details: induced by dextran sodium sulfate or aspirin; cited from earlier work
TNBS-induced colitis [2] = assay: grading of histologic change of the colon in TNBS colitis; type: in vivo, BALB/c mice; details: day 4, 1.0 μg/mouse i.p.
Experimental: FIG. 3. Colon histopathology from RvE1 or ATLa-treated mice. Colon section of vehicle-treated mouse (A), 4 days after the induction of colitis by TNBS (B), mice received RvE1 (C) and ATLa (D). (E) Histological scores of the colon of mice receiving vehicle, TNBS only, TNBS plus RvE1, or TNBS plus ATLa. *p<0.05 and **p<0.01, respectively.
To generate a more chronic T cell-mediated inflammation, BALB/c mice were sensitized with 150 μl of the haptenating agent 2,4,6-trinitrobenzene sulfonic acid (TNBS; Sigma-Aldrich, St. Louis, Mo.) of 2.5% in 50% ethanol by skin painting on day −7. On day 0, 150 μl of 1% TNBS in 50% ethanol was administered intrarectally via a 3.5 F catheter under anesthesia with tribromoethanol. To ensure distribution of the TNBS within the entire colon and cecum, mice were held in a vertical position for 1 min after the instillation. On day 4, mice were killed and immunopathologic characterization was performed as previously described (23).
The degree of inflammation on microscopic cross sections of the colon was graded semi quantitatively. Severity of colitis was assessed based on five histologic criteria, each graded on a […] (0=absent, 1=mild, 2=moderate, 3=severe): mononuclear inflammation, neutrophilic infiltration/crypt abscesses, crypt hyperplasia, mucosal injury/ulceration, and mucosal hypervascularity. The five scores were summed to give a total score. […]

[3] = test system: dextran sodium sulfate (DSS)-induced colitis; details: cited from earlier work
anti-TNBS IgG = assay: detection of TNP-specific antibodies in serum with ELISA; type: in vivo, mice; details: day 4
Description: (§1) FIG. 4. RvE1 reduces leukocyte infiltration and pro-inflammatory mediators in colitis. (A) Myeloperoxidase (MPO) activity of colons of mice treated with TNBS alone or mice given RvE1. *p<0.0001 versus mice treated with TNBS alone. (B) Anti-TNBS IgG level in serum on day 4 from mice treated with TNBS alone or receiving RvE1 as noted. *p<0.01. (C) Quantitative real time PCR analysis of mRNA expression of inflammatory mediators in colons obtained on day 4 from control mice (white column), mice treated with TNBS alone (black column) or receiving TNBS plus RvE1 (gray column). *p<0.01.
Sera were collected on day 4, and anti-trinitrophenyl residue (TNP) antibodies were determined by ELISA as previously described with a minor modification (25). Briefly, 100 mg of OVA was dissolved in 4 ml of 0.05M carbonate-bicarbonate buffer at pH 9.6 followed by adding 1 ml of TNBS 5% solution and incubating for 2 h at room temperature. TNP-OVA was dialyzed in PBS and then stored at −80° C. until use. For the detection of TNP-specific antibodies, TNP-OVA was dissolved at the concentration of 0.1 mg/ml in 0.05M carbonate-bicarbonate buffer at pH 9.6 and 100 μl was placed in each well of 96-well microtiter plates for coating. After blocking with 1% bovine serum albumin in PBS, plates were incubated with appropriately diluted serum. […]

[4] = test system: Myeloperoxidase (MPO) activity of colons; assay: myeloperoxidase (MPO) assay of colon tissue in TNBS colitis; type: in vivo, mice; details: versus control vehicle
Description: as §1
Each tissue sample was assessed for PMN content and infiltration. Tissues were homogenized in potassium phosphate buffer (pH 6.0) containing 0.5% hexadecyltrimethylammonium bromide, followed by three cycles of sonication and freeze-thawing. The particulate matter was removed by centrifugation (16,000 g for 20 min), and 75 μl of supernatant was added to 925 μl of potassium phosphate buffer (pH 6.0) containing 0.2 mg/ml o-dianisidine dihydrochloride (Sigma, St. Louis, Mo.) and 0.0006% hydrogen peroxide. Changes in OD were monitored at 460 nm at 25° C., at 30- and 90-s intervals. Calibration curve for conversion of MPO activities to PMN number was performed as in ref. 24.

TNBS-induced colitis [5] = assay: TNBS-induced colitis (mortality, body weight, colon macroscopy); type: in vivo, BALB/c mice
Experimental: (C) Macroscopic appearance of the colon of mice receiving vehicle, TNBS only, or mice receiving RvE1 (0.05 mg/kg).
RvE1 was administered intraperitoneally (1.0 μg/mouse; 50 μg/kg) on the indicated days before the induction of colitis (prevention mode). Aspirin-triggered lipoxin A4 analog (ATLa; 15-epi-16-(p-fluoro)phenoxy-LXA4) was given at the same dose as a direct comparison with RvE1.

[6] = test system: mRNA expression of inflammatory mediators in colons; assay: quantitative real-time PCR of inflammatory mediators in colon; type: in vivo, mice; details: day 4, TNBS colitis
Description: as §1
Total RNA from colon was prepared using Trizol™ reagent (Life Technologies, Rockville, Md.). Real-time PCR was performed using the LightCycler FastStart DNA Master SYBR Green I (Roche Diagnostics GmbH, Mannheim, Germany) according to manufacturer's protocol. Primers for IFN-γ, IL-12p40, TNF-α, IL-4, TGF-β, IL-10, iNOS and glyceraldehyde-3-phosphate dehydrogenase (GAPDH) were designed as described (26). Primers for COX-2 were designed as follows: 5′-[…]-3′ and 5′-[…]-3′. Quantities of specific mRNA in the sample were measured according to the corresponding gene-specific standard curve. The relative expression of each gene was normalized against the housekeeping gene GAPDH.

## CCC(O)/C=C/C=C\C/C=C\C/C=C\C=C\[C@@H](O)CCCC(=O)O (mixture of isomers) [5S,18(+/−)-diHEPA]
[1]
  relative potency in the peritonitis model: equipotent to Resolvin E1
  effect on PMN infiltration/migration into the peritoneum (in words): downregulation of PMN infiltration

## CC/C=C\C[C@H](O)/C=C/C=C\C=C\[C@@H](O)C/C=C\CC#CCCC(=O)O [4,5-dehydro 10,17S-dihydroxy DHA]
[1]; 100 ng dose, murine zymosan A-induced peritonitis
  inhibition of the PMN infiltration: 40%

## CC/C=C\C[C@H](O)/C=C/C=C/C=C/C(O)C/C=C\C/C=C\CCC(=O)O (stereo partly drawn) [10,17 di-HDHA, 10,17S-dihydroxy-docosa-4Z,7Z,11E,13,15E,19Z-hexaenoic acid]
[1]
  effect on PMN infiltration/migration into the peritoneum (in words): inhibited both PMN migration into the peritoneum

## CCCCC[C@@H](O)/C=C/C=C\C=C\C=C\[C@@H](O)[C@@H](O)CCCC(=O)O [15-epi-lipoxin A4]
Gastric damage
  protection against gastric damage: protective

## CC[C@@H](O)/C=C/C=C\C/C=C\C/C=C\C/C=C\CCCC(=O)O [18R-HEPE, reference compound]
[1]
  relative potency in the peritonitis model: much less potent

## O=C(O)CCC[C@H](O)[C@H](O)/C=C/C=C/C=C\C=C\[C@H](O)COc1ccc(F)cc1 [ATLa, 15-epi-16-(p-fluoro)phenoxy-LXA4, reference compound]
TNBS-induced colitis [2]
  histologic features of colitis: dramatic protection
[3]
  protection against DSS-induced colitis: protective

## CC[C@@H](O)/C=C/C=C\C[C@@H](O)/C=C/C=C/C=C\[C@@H](O)CCCC(=O)O [RvE1, 5S,12R,18R-trihydroxy-6Z,8E,10E,14Z,16E-eicosapentaenoic acid]
anti-TNBS IgG
  serum anti-TNBS IgG level: decreased
[4]
  myeloperoxidase (MPO) activity in colon: significantly lower levels
TNBS-induced colitis [2]
  histologic features of colitis: less severe histologic features of colitis
TNBS-induced colitis [5]; 0.05 mg/kg
  protection against the development of TNBS colitis: complete protection
TNBS-induced colitis [5]; RvE1 1.0 μg/mouse (0.05 mg/kg) i.p., TNBS alone 62.5%
  overall mortality: 25%
TNBS-induced colitis [5]; RvE1 1 μg/mouse or 0.05 mg/kg, versus TNBS with vehicle
  body weight loss: less weight loss
TNBS-induced colitis [5]; RvE1 0.05 mg/kg
  shortening and thickening of the colon: did not exhibit significant shortening and thickening of the colon
TNBS-induced colitis [5]; versus non-treated mice
  survival rate: significantly higher
[1]; 100 ng/mouse intravenously, zymosan peritonitis, lavage at 2 h
  reduction of leukocyte infiltration: 50%
[1]
  relative potency in the peritonitis model: more potent than indomethacin
[6]
  COX-2 mRNA level in colon: significant reduction
  IFN-γ mRNA level in colon: direct effects were not observed
  IL-4 mRNA level in colon: direct effects were not observed
  IL-10 mRNA level in colon: direct effects were not observed
  IL-12p40 mRNA level in colon: significant reduction
  TGF-β mRNA level in colon: did not show significant differences
[6]; 0.05 mg/kg
  TNF-α mRNA level in colon: significant reduction; also recorded: dramatic decrease
  iNOS mRNA level in colon: significant reduction; also recorded: dramatic decrease

## COc1ccc2c(c1)c(CC(=O)O)c(C)n2C(=O)c1ccc(Cl)cc1 [indomethacin, reference compound]
[1]; zymosan peritonitis, dose not given
  reduction of leukocyte numbers in the exudate: approximately 20%
